Like-named read-outs stand apart in the source and are kept apart here. Starred links: 1 amine or outer side, 2 acyl side, 3 side chain; linkers in the order of their positions; H or OH if unused. Non-standard residues stand in square brackets, D forms with d. Residues, ends and D or L forms follow the SMILES beside them. Groups on a side chain read outwards from the residue. *: point of attachment. C18 diacid = O=C(O)CCCCCCCCCCCCCCCCC(=O)*; C16 diacid = O=C(O)CCCCCCCCCCCCCCC(=O)*; γGlu = O=C(O)[C@H](CCC(=O)[*:2])N[*:1]; εLys = N[C@@H](CCCCN[*:1])C(=O)[*:2]; AEEA = NCCOCCOCC(=O)O; Aib = CC(C)(N)C(=O)O
Tests used:
[1] = biological target: T1, human GIP receptor (Homo sapiens, UniProt P48546); test: In vitro functional potency, CRE luciferase reporter, whole BHK cells (hGIPR); type: cell-based; details: BHK CRE luc2P hGIPR cells
T1 construct: expressed in transfected cells; host or cells: BHK (parent line BHKTS13), clone BHK CRE luc2P hGIPR
T1 sequence (P48546 22-466): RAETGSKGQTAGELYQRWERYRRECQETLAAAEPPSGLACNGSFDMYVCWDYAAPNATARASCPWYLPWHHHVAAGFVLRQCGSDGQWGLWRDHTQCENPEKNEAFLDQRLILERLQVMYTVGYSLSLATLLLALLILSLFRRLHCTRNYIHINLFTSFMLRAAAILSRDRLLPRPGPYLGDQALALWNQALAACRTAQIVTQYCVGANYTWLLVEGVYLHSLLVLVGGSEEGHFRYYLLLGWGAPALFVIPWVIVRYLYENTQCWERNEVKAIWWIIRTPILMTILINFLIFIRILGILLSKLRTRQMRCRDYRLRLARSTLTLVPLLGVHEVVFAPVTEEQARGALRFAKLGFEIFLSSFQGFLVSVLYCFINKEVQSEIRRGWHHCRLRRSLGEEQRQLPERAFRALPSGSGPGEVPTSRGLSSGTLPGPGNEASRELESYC
Protocol: (§1) The in vitro functional potency is the measure of target receptor activation in a whole cell assay.
(§2) In vitro functional potency was determined by measuring the response of the target receptor in a reporter gene assay in individual cell lines. […] When the respective receptor is activated, it results in the production of cAMP, which in turn results in expression of the luciferase protein. When assay incubation is completed, luciferase substrate (luciferin) is added resulting in the enzymatic conversion of luciferin to oxyluciferin and producing bioluminescence. The luminescence is measured as the readout for the assay.
(§3) The cells lines used in these assays were BHK cells with BHKTS13 as a parent cell line. The cell lines were derived from a clone containing the CRE luciferase element and were established by further transfection with the respective human receptor to obtain the relevant cell line: BHK CRE luc2P hGLP-1R or BHK CRE luc2P hGIPR. The cells were cultured at 37° C. with 5% CO2 in Cell Culture Medium. They were aliquoted and stored in liquid nitrogen. The cells were kept in continuous culture and were seeded out the day before each assay.
(§4) GLP-1R Cell Culture Medium consisted of DMEM medium with 10% FBS, 500 µg/mL G418, and 300 µg/mL hygromycin. GIPR Cell Culture Medium consisted of DMEM medium with 10% FBS, 400 µg/mL G418, and 300 µg/mL hygromycin. Assay Buffer consisted of DMEM w/o phenol red, 10 mM Hepes, 1× Glutamax. 1% ovalbumin, and 0.1% Pluronic F-68 with the addition of HSA at twice the final assay concentration.
(§5) 1) Cells were plated at 5000 cells/well and incubated overnight in the assay plate. 2) Cells were washed once in DPBS. 3) Stocks of the test compounds and reference compounds in concentrations ranging from […] were diluted 1:150 in Assay Buffer. Compounds were then diluted 1:10 in column 1 of a 96 deep well dilution plate and then carried across the row creating a 3.5 fold, 12 point dilution curve. 4) Assay Buffer (50 μl aliquot) with or without HSA was added to each well in the assay plate. 5) A 50 μl aliquot of compound or blank was transferred from the dilution plate to the assay plate containing the Assay Buffer with or without HSA. 6) The assay plate was incubated for 3 h in a 5% CO2 incubator at 37° C. 7) The cells were washed once with DPBS. 8) A 100 μl aliquot of DPBS was added to each well of the assay plate. 9) A 100 μl aliquot of steadylite plus reagent (light sensitive) was added to each well of the assay plate. 10) Each assay plate was covered with aluminum foil to protect it from light and shaken at 250 RPM for 30 min at room temperature. 11) Each assay plate was read in a microtiter plate reader.
(§6) The data from the microtiter plate reader was first regressed in an Excel in order to calculate the x-axis, log scale concentrations based on the individual test compound's stock concentration and the dilutions of the assay. […] The software performs a non-linear regression (log(agonist) vs response). A minimum of two replicates was measured for each sample. The reported values are averages of the replicates.

[2] = biological target: human GLP-1 receptor (Homo sapiens, UniProt P43220); test: In vitro functional potency, CRE luciferase reporter, whole BHK cells (hGLP-1R); type: cell-based; design: expressed in transfected cells; host or cells: BHK (parent line BHKTS13), clone BHK CRE luc2P hGLP-1R; details: BHK CRE luc2P hGLP-1R cells
Protocol: as §1, §2, §3, §4, §5, §6

[3] = 0% HSA, read-out: hGIPR, CRE Luc 0% HSA EC50
[4] = hGIPR, CRE Luc 1% HSA EC50, 1% HSA
[5] = 0% HSA, read-out: hGLP-1R, CRE Luc 0% HSA EC50
[6] = hGLP-1R, CRE Luc 1% HSA EC50, 1% HSA

Sequence of human GLP-1 receptor (P43220 24-463): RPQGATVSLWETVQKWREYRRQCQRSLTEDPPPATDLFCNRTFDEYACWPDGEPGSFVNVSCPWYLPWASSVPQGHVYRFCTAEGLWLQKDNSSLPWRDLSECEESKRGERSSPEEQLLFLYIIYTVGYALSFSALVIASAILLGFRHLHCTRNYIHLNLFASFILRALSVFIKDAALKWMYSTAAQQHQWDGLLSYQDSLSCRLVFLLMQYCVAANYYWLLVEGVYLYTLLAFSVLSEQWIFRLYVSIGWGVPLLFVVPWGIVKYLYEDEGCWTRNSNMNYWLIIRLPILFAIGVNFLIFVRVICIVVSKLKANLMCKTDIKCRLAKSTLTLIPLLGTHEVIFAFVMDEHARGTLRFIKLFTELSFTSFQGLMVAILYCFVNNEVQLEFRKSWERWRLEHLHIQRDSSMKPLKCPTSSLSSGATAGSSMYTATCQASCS

EC50 [1, 3] [pM]	EC50 [1, 4] [pM]	EC50 [2, 5] [pM]	EC50 [2, 6] [pM]	Compound
1.8	97	1.5	111	CC[C@H](C)[C@H](NC(=O)[C@H](Cc1ccccc1)NC(=O)[C@H](CCC(=O)O)NC(=O)[C@H](CCCNC(=N)N)NC(=O)[C@H](C)NC(=O)[C@H](C)NC(=O)[C@H](CCC(N)=O)NC(=O)[C@H](CCC(=O)O)NC(=O)[C@H](CCC(=O)O)NC(=O)[C@H](CC(C)C)NC(=O)[C@H](CC(C)C)NC(=O)[C@@H](NC(=O)[C@H](CO)NC(=O)[C@H](Cc1ccc(O)cc1)NC(=O)[C@H](CC(=O)O)NC(=O)[C@H](CO)NC(=O)[C@@H](NC(=O)[C@H](Cc1ccccc1)NC(=O)[C@@H](NC(=O)CNC(=O)[C@H](CCC(=O)O)NC(=O)C(C)(C)NC(=O)[C@@H](N)Cc1ccc(O)cc1)[C@@H](C)O)[C@@H](C)O)[C@@H](C)CC)C(=O)N[C@@H](CCC(=O)O)C(=O)N[C@@H](Cc1c[nH]c2ccccc12)C(=O)N[C@@H](CC(C)C)C(=O)N[C@@H](CC(C)C)C(=O)N[C@@H](C)C(=O)NCC(=O)NCC(=O)N1CCC[C@H]1C(=O)N[C@@H](CO)C(=O)N[C@@H](CCCCNC(=O)[C@@H](N)CCCCNC(=O)[C@@H](N)CCCCNC(=O)CC[C@H](NC(=O)CCCCCCCCCCCCCCC(=O)O)C(=O)O)C(=O)NCC(=O)N[C@@H](C)C(=O)N1CCC[C@H]1C(=O)N1CCC[C@H]1C(=O)N1CCC[C@H]1C(=O)N[C@@H](CO)C(=O)O [Compound 46] (H-Y[Aib]EGTFTSDYSILLEEQAAREFIEWLLAGGPSK([εLys-εLys-γGlu-C16 diacid])GAPPPS-OH)
6.5	275	8.6	365	CC[C@H](C)[C@H](NC(=O)[C@H](Cc1ccccc1)NC(=O)[C@H](CCC(=O)O)NC(=O)[C@H](CCCNC(=N)N)NC(=O)[C@H](C)NC(=O)[C@H](C)NC(=O)[C@H](CCC(N)=O)NC(=O)[C@H](CCCCNC(=O)[C@@H](N)CCCCNC(=O)[C@@H](N)CCCCNC(=O)CC[C@H](NC(=O)CCCCCCCCCCCCCCCCC(=O)O)C(=O)O)NC(=O)[C@H](CCC(=O)O)NC(=O)[C@H](CC(C)C)NC(=O)[C@H](CC(C)C)NC(=O)[C@@H](NC(=O)[C@H](CO)NC(=O)[C@H](Cc1ccc(O)cc1)NC(=O)[C@H](CC(=O)O)NC(=O)[C@H](CO)NC(=O)[C@@H](NC(=O)[C@H](Cc1ccccc1)NC(=O)[C@@H](NC(=O)CNC(=O)[C@H](CCC(=O)O)NC(=O)C(C)(C)NC(=O)[C@@H](N)Cc1ccc(O)cc1)[C@@H](C)O)[C@@H](C)O)[C@@H](C)CC)C(=O)N[C@@H](CC(N)=O)C(=O)N[C@@H](Cc1c[nH]c2ccccc12)C(=O)N[C@@H](CC(C)C)C(=O)N[C@@H](CC(C)C)C(=O)N[C@@H](C)C(=O)NCC(=O)NCC(=O)N1CCC[C@H]1C(=O)O [Compound 19] (H-Y[Aib]EGTFTSDYSILLEK([εLys-εLys-γGlu-C18 diacid])QAAREFINWLLAGGP-OH)
3.8	1220	3.9	1580	CC[C@H](C)[C@H](NC(=O)[C@H](Cc1ccccc1)NC(=O)[C@H](CCC(=O)O)NC(=O)[C@H](CCCNC(=N)N)NC(=O)[C@H](C)NC(=O)[C@H](C)NC(=O)[C@H](CCC(N)=O)NC(=O)[C@H](CCC(=O)O)NC(=O)[C@H](CCC(=O)O)NC(=O)[C@H](CC(C)C)NC(=O)[C@H](CC(C)C)NC(=O)[C@@H](NC(=O)[C@H](CO)NC(=O)[C@H](Cc1ccc(O)cc1)NC(=O)[C@H](CC(=O)O)NC(=O)[C@H](CO)NC(=O)[C@@H](NC(=O)[C@H](Cc1ccccc1)NC(=O)[C@@H](NC(=O)CNC(=O)[C@H](CCC(=O)O)NC(=O)C(C)(C)NC(=O)[C@@H](N)Cc1ccc(O)cc1)[C@@H](C)O)[C@@H](C)O)[C@@H](C)CC)C(=O)N[C@@H](CCC(=O)O)C(=O)N[C@@H](Cc1c[nH]c2ccccc12)C(=O)N[C@@H](CC(C)C)C(=O)N[C@@H](CC(C)C)C(=O)N[C@@H](C)C(=O)NCC(=O)NCC(=O)N1CCC[C@H]1C(=O)N[C@@H](CO)C(=O)N[C@@H](CCCCNC(=O)COCCOCCNC(=O)COCCOCCNC(=O)CC[C@H](NC(=O)CCCCCCCCCCCCCCCCC(=O)O)C(=O)O)C(=O)NCC(=O)N[C@@H](C)C(=O)N1CCC[C@H]1C(=O)N1CCC[C@H]1C(=O)N1CCC[C@H]1C(=O)N[C@@H](CO)C(=O)O [Compound 45] (H-Y[Aib]EGTFTSDYSILLEEQAAREFIEWLLAGGPSK([AEEA-AEEA-γGlu-C18 diacid])GAPPPS-OH)

Compound	EC50 [1, 3] [pM]	EC50 [1, 4] [pM]	EC50 [2, 5] [pM]	EC50 [2, 6] [pM]
CC[C@H](C)[C@H](NC(=O)[C@H](Cc1ccccc1)NC(=O)[C@H](CCCCNC(=O)[C@@H](N)CCCCNC(=O)[C@@H](N)CCCCNC(=O)CC[C@H](NC(=O)CCCCCCCCCCCCCCCCC(=O)O)C(=O)O)NC(=O)[C@H](CCCNC(=N)N)NC(=O)[C@H](C)NC(=O)[C@H](C)NC(=O)[C@H](CCC(N)=O)NC(=O)[C@H](CCC(=O)O)NC(=O)[C@H](CCC(=O)O)NC(=O)[C@H](CC(C)C)NC(=O)[C@H](CC(C)C)NC(=O)[C@@H](NC(=O)[C@H](CO)NC(=O)[C@H](Cc1ccc(O)cc1)NC(=O)[C@H](CC(=O)O)NC(=O)[C@H](CO)NC(=O)[C@@H](NC(=O)[C@H](Cc1ccccc1)NC(=O)[C@@H](NC(=O)CNC(=O)[C@H](CCC(=O)O)NC(=O)C(C)(C)NC(=O)[C@@H](N)Cc1ccc(O)cc1)[C@@H](C)O)[C@@H](C)O)[C@@H](C)CC)C(=O)N[C@@H](CC(N)=O)C(=O)N[C@@H](Cc1c[nH]c2ccccc12)C(=O)N[C@@H](CC(C)C)C(=O)N[C@@H](CC(C)C)C(=O)N[C@@H](C)C(=O)NCC(=O)NCC(=O)N1CCC[C@H]1C(=O)N[C@@H](CO)C(=O)N[C@@H](CO)C(=O)NCC(=O)N[C@@H](C)C(=O)N1CCC[C@H]1C(=O)N1CCC[C@H]1C(=O)N1CCC[C@H]1C(=O)N[C@@H](CO)C(=O)O [Compound 39] (H-Y[Aib]EGTFTSDYSILLEEQAARK([εLys-εLys-γGlu-C18 diacid])FINWLLAGGPSSGAPPPS-OH)	28.4	365	8.2	135

— US20220177538A1, “CO-AGONISTS AT GLP-1 AND GIP RECEPTORS SUITABLE FOR ORAL DELIVERY” (Novo Nordisk A/S, priority 2020, published 2022)
